Assay results as given in patent publication US20160237059A1, “HETEROCYCLIC SUBSTITUTED TRIFLUOROMETHYL PYRIMIDINONES AND THEIR USE” (BAYER PHARMA AKTIENGESELLSCHAFT, priority 2013, published 2016).

Tests used:
human CCR2 = biological target: T1, human CCR2 (Homo sapiens, UniProt P41597); assay: Functional Ca2+ release test (B-1); assay type: cell-based; details: Chem-1 cell line transfected with human CCR2; 50% inhibition of the MCP-1 effect, MCP-1 at EC50 (about 5 nM); in some cases means of several determinations
T1 construct: host or cells: Chem-1 cell line
T1 sequence (P41597 1-360 isoform P41597-2): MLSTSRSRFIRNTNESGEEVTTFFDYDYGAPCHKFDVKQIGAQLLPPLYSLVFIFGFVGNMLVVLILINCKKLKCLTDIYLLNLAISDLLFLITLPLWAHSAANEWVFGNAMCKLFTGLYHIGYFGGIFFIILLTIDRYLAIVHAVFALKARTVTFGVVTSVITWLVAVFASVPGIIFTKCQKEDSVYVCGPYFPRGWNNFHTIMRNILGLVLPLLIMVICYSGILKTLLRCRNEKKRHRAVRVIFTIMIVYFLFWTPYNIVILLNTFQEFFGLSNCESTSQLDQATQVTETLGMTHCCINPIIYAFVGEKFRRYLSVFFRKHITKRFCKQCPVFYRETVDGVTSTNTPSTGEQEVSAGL
Method in brief: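 Inhibition of MCP-1-evoked Ca2+ release was measured over 120 s by fluorescence imaging in Fluo-4-loaded, human CCR2-transfected Chem-1 cells. Compounds, tested in 10-point 1:3.16 series, were added 10 min before agonist at its EC50 (typically about 5 nM). IC50 values were obtained by 4-parameter logistic fitting.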

murine CCR2 = biological target: T2, murine CCR2 (Mus musculus, UniProt P51683); assay: Functional β-arrestin recruiting test with murine MCP-1 (B-2b); assay type: cell-based; details: U2OS β-arrestin cell line transfected with murine CCR2; agonist murine MCP-1; in some cases means of several determinations
T2 construct: host or cells: U2OS β-arrestin cell line
T2 sequence (P51683 whole entry): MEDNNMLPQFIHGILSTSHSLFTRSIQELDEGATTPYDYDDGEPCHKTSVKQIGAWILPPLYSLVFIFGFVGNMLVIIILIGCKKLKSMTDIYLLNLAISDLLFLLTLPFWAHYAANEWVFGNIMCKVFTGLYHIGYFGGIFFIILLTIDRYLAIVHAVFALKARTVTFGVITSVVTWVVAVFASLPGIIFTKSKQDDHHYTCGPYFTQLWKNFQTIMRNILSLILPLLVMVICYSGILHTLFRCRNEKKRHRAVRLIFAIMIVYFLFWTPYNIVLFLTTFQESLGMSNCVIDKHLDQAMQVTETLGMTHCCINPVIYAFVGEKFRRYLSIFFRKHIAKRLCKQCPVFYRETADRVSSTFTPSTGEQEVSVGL
Method in brief: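 In a PathHunter β-galactosidase complementation assay, U2OS cells expressing murine CCR2 were preincubated 10 min with compound (10-point, 1:3.16 dilutions), then challenged with murine MCP-1 at its predetermined EC50 for 90 min at 37 °C. Luminescence was read after 60 min, and IC50 was fitted with a 4-parameter Hill function.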

| IC50 (human CCR2) [nM] | IC50 (murine CCR2) [nM] | Compound |
| --- | --- | --- |
| 1.1 | 157 | O=c1[nH]c(-c2ccc(Cl)cn2)nc(C(F)(F)F)c1Oc1ccc(Cl)c(C(F)(F)F)c1 [Example 195, 2-(5-chloropyridin-2-yl)-5-[4-chloro-3-(trifluoromethyl)phenoxy]-6-(trifluoromethyl)pyrimidin-4(3H)-one] |
| 0.6 | 49 | COc1c[nH]nc1-c1nc(C(F)(F)F)c(Oc2ccc(Cl)c(Cl)c2)c(=O)[nH]1 [Example 213] |
| 1 | 80 | COc1csnc1-c1nc(C(F)(F)F)c(Oc2ccc(Cl)c(Cl)c2)c(=O)[nH]1 [Example 237] |
| 14 | 1570 | CN(C)c1cccc(-c2nc(C(F)(F)F)c(Oc3ccc(Cl)c(C(F)(F)F)c3)c(=O)[nH]2)n1 [Example 135, 5-[4-chloro-3-(trifluoromethyl)phenoxy]-2-[6-(dimethylamino)pyridin-2-yl]-6-(trifluoromethyl)pyrimidin-4(3H)-one] |
| 16 | 798 | O=c1[nH]c(-c2cccnc2)nc(C(F)(F)F)c1Oc1ccc(Cl)c(C(F)(F)F)c1 [Example 164, 5-[4-chloro-3-(trifluoromethyl)phenoxy]-2-(pyridin-3-yl)-6-(trifluoromethyl)pyrimidin-4(3H)-one] |
| 0.8 | 100 | Nc1ccn(-c2nc(C(F)(F)F)c(Oc3ccc(Cl)c(Cl)c3)c(=O)[nH]2)n1 [Example 256, 2-(3-Amino-1H-pyrazol-1-yl)-5-(3,4-dichlorophenoxy)-6-(trifluoromethyl)pyrimidin-4(3H)-one] |
| 0.6 | 28 | Nc1ccc(-c2nc(C(F)(F)F)c(Oc3ccc(Cl)c(Cl)c3)c(=O)[nH]2)nc1 [Example 123, 2-(5-aminopyridin-2-yl)-5-(3,4-dichlorophenoxy)-6-(trifluoromethyl)pyrimidin-4(3H)-one] |
| 2.6 | 1700 | Cc1cnc(-c2nc(C(F)(F)F)c(Oc3ccc(Cl)c(Cl)c3)c(=O)[nH]2)cc1C [Example 212] |
| 692 | 720 | COc1nn(C)cc1-c1nc(C(F)(F)F)c(Oc2ccc(Cl)c(Cl)c2)c(=O)[nH]1 [Example 236] |
| 0.7 | 79 | Cc1ccc(-c2nc(C(F)(F)F)c(Oc3ccc(Cl)c(C(F)(F)F)c3)c(=O)[nH]2)nc1 [Example 193, 5-[4-chloro-3-(trifluoromethyl)phenoxy]-2-(5-methylpyridin-2-yl)-6-(trifluoromethyl)pyrimidin-4(3H)-one] |
| 3 | 349 | O=c1[nH]c(-c2ncccc2Cl)nc(C(F)(F)F)c1Oc1ccc(Cl)cc1 [Example 210] |
| 0.7 | 229 | O=c1[nH]c(-c2n[nH]c3ccccc23)nc(C(F)(F)F)c1Oc1ccc(Cl)c(Cl)c1 [Example 139, 5-(3,4-Dichlorophenoxy)-2-(1H-indazol-3-yl)-6-(trifluoromethyl)pyrimidin-4(3H)-one] |
| 0.3 | 8.4 | O=c1[nH]c(-c2ncccc2Br)nc(C(F)(F)F)c1Oc1ccc(Cl)c(C(F)(F)F)c1 [Example 182, 2-(3-bromopyridin-2-yl)-5-[4-chloro-3-(trifluoromethyl)phenoxy]-6-(trifluoromethyl)pyrimidin-4(3H)-one] |
| 0.3 | 170 | Cc1cc(-c2nc(C(F)(F)F)c(Oc3ccc(Cl)c(C(F)(F)F)c3)c(=O)[nH]2)no1 [Example 232] |
| 0.3 | 27 | O=c1[nH]c(-c2ccsn2)nc(C(F)(F)F)c1Oc1ccc(Cl)c(C(F)(F)F)c1 [Example 234] |

| Compound | IC50 (human CCR2) [nM] | IC50 (murine CCR2) [nM] |
| --- | --- | --- |
| CC(C)(C)Oc1ccnc(-c2nc(C(F)(F)F)c(Oc3ccc(Cl)c(Cl)c3)c(=O)[nH]2)c1 [Example 159, 2-(4-tert-butoxypyridin-2-yl)-5-(3,4-dichlorophenoxy)-6-(trifluoromethyl)pyrimidin-4(3H)-one] | 62 | 2470 |
